Source: US4857549A, “Antitumor compounds” (priority 1988, dated 1989)
Several values for one entry are separate records, joined by “and”; a condition that tells them apart may be missing. Equal values may be shown once. Read-outs that look alike come from different tables or passages of the source.

Assays:
cells = settings: Struck et al., J. Med. Chem. (1966); cited from earlier work
[1] = in vivo ip B16 melanoma assay; settings: mouse, in vivo, ip
Protocol: (§4) The cytotoxic activity of several compounds of Formula (I) was evaluated in vivo using B16 melanoma cells according to the following assay:
(§5) In this system, groups of eight B6D2F1 mice are inoculated ip with 0.5 ml of a 10% (w:v) brei of B16 melanoma prepared from pooled sc tumors excised at 14.noteq.21 days from C67B1 /6 donor mice. Daily treatment is begun 24 hours after tumor implantation and is continued daily for 10 days. The route of drug administration is ip. The mice are monitored daily for survival for 60 days. Antitumor activity is assessed by prolongation of median survival time.

B16 melanoma = test: in vivo ip B16 melanoma assay
Protocol: as §4, §5

ADJ-PC6 Plasmacytoma = test: ADJ-PC6 plasmacytoma assay
Protocol: (§1) Tumor cells are carried by serial sc passage in BALB/c female mice and then collected aseptically on ca. Day 21 and minced in Hank's balanced salt solution. The cells are then dispersed by homogenization in a loose-fitting teflon glass homogenizer, and cell concentration is adjusted to 4×10^6 viable ([…]) cells per ml by hemocytometer counts. A total of 0.5 ml (2×10^6 cells) is implanted sc on the right flank of BALB/c female mice in groups of 8. Treatment is given ip on Days 1-10, and tumors are measured in perpendicular diameters with a vernier caliper on Day 18.
(§2) ^(b) maximally tolerated dose for BALB/c female mice on an ip qD

[2] = ADJ-PC6 plasmacytoma assay; settings: mouse, in vivo, ip
Protocol: as §1, §2

[3] = system: M5076 reticulum cell sarcoma; test: ip M5076 reticulum cell sarcoma assay in mice; settings: for MTD (maximally tolerated dose): B6D2F1 female mice; for MTD (maximally tolerated dose) / ILS max (maximum increase in lifespan): ip qD × 10; for ILS max (maximum increase in lifespan): ip M5076 sarcoma mice, slash = separate experiments
Protocol: Another chemosensitive tumor model is intraperitoneally (ip) implanted M5076 reticulum cell sarcoma in mice. In this system B6D2F1 female mice are inoculated with 0.5 ml of a 10 percent weight:volume (w:v) brei of M5076 prepared from pooled subcutaneous (sc) tumors excised at about 21 days from c57B1/6 donor mice. Drugs are administered ip. Daily treatment is begun 24 hours after implantation and is continued for ten days. The treatment regimen for M5076 is more prolonged than for P388 because of the slower growth rate and longer control survival time of the M5076 tumor.

Lewis Lung tumor = test: ip Lewis Lung tumor assay; type: in vivo; parameters: ILS: dose or concentration left out as unconfirmed; settings: at MTD of […] mg/kg, q4D×4 regimen
Excerpt: (§3) The protocol for carrying out this tumor assay is well known to those of skill in the art.

[4] = ip Lewis Lung tumor assay; type: in vivo; parameters: ILS: dose or concentration left out as unconfirmed; settings: in vivo; q4D×4 regimen
Excerpt: as §3

[5] = system: mammary adenocarcinoma 16/c; test: sc mammary adenocarcinoma 16/c assay
Protocol: (§6) The mammary adenocarcinoma 16/c tumor is implanted sc in C3H mice, and the Formula (I) compound is administered ip on days 1, 5, 9, 13 and 17. Tumors are measured 3 weeks after implantation, and activity is assessed by degree of tumor growth inhibition.

[6] = sc mammary adenocarcinoma 16/c assay; settings: mouse, in vivo
Protocol: as §6

[7] = system: Madison 109 lung carcinoma; test: ip Madison 109 lung carcinoma tumor assay; settings: at MTD of 16 mg/kg, q4D×4 regimen
[8] = ip Madison 109 lung carcinoma tumor assay; settings: in vivo
[9] = system: B16 melanoma cells (highly metastatic subline, F10); test: B16 melanoma in vitro cloning (colony forming) assay, 2 hour exposure; type: cell-based; settings: read-out: IC50: concentration which inhibits cloning efficiency of B16 melanoma cells by 50%
Protocol: Initially, the cytotoxic activity of the Formula (I) and Formula (IA) compounds used in the pharmaceutical compositions and methods of treatment of the instant invention was evaluated in vitro using B16 melanoma cells according to the following assay:
B16 melanoma (highly metastatic subline, F10) are used and maintained as monolayer cultures in Minimal Essential Media (Grand Island Biological Co., Grand Island, N.Y. ) supplemented with 10% calf serum, 1% antibiotics in a 5% CO2 humidified incubator at 37° C. Asynchronous populations of cells are harvested and replated to 5000 cells/plate in sterile 60 mm×15 mm petri plates. Plates are incubated overnight to allow attachment of the cells to the plate. Cells are treated with a Formula (I) or Formula (IA) compound or cisplatin under sterile conditions, allowed to react for 2 hours followed by aspiration of medium. Plates are washed one time with 5 ml of phosphate buffered saline (PBS), followed by the addition of 5 ml of fresh media. Plates are incubated for 5 days at 37° in a CO2 incubator. Viability is measured by the ability of a cell to form a colony of greater than 50 cells. Colonies are fixed with 0.5% crystal violet in 95% ethanol. Plates are dried and counted with a Biotran III Automatic Count Totalizer (New Brunswick Scientific Co., Edison, N.J.). Mean and standard deviation of triplicate samples are determined for each drug concentration. The data are analyzed by plotting the log of the survival fraction (number of colonies in drug treated plates/number of colonies in controls) versus the drug concentration.
^(a) concentration which inhibits cloning efficiency of B16 melanoma
cells by 50% on a 2hour exposure.

in vivo = settings: mouse, ip
Unknown primary tumor = settings: Table 3, Unknown primary; response = ≤50% survival of tumor colony forming units
Excerpt: (§7) Tumor Specimens: Specimens were collected using asceptic technique and transported in medium containing Penicillin, Streptomycin, and Amphotericin B. Specimens which could not be immediately processed were minced into fragments 5 mm^3 or smaller, prior to transport. Effusions were collected with ten units of preservative free heparin per ml of effusion. Specimens were processed to obtain cell suspensions as soon as possible after removal from the patient.
(§8) Culture Methods: A two-layer soft agar culture system was used in these studies. […] Cell counts were performed on a hemacytometer after lysis of erythrocytes in acetic acid. A total of 500,000 nucleated cells were plated in a volume of 1 ml (0.3 percent agar) over 1 ml base layers (0.6 percent agar) in each culture. Cultures were incubated in humidified 37° C. incubators with an atmosphere of 5 percent CO2 in air and control plates monitored for growth using an inverted microscope. At the time of maximum colony formation (7-21 days in culture) final colony counts were obtained with a Bausch and Lomb FAS II image analysis system. Objects presenting a circular profile in two dimensions with a minimum diameter of 60 μm were scored as colonies by the system.
(§9) Drug Treatment: A total of six untreated or vehicle treated cultures were plated for determination of control growth in each experiment. […]

[10] = system: human tumor colony forming units; test: human tumor cloning assay (all tumor types); type: cell-based
Protocol: The cytotoxic activity of Compound No. 2 from TABLE A, namely μ-[1,2-bis(diphenylphosphino)ethane]bis-[chlorogold (I)], was also determined in a human tumor cloning assay. This procedure is described as follows:
[Salmon, et al., N. Engl. J. Med., 298:1321 (1978)].

Breast tumor = settings: Table 3, Breast; response = ≤50% survival of tumor colony forming units
Excerpt: as §7, §8, §9

Melanoma = settings: Table 3, Melanoma; response = ≤50% survival of tumor colony forming units
Excerpt: as §7, §8, §9

Corpus uterus tumor = settings: Table 3, Corpus uterus; response = ≤50% survival of tumor colony forming units
Excerpt: as §7, §8, §9

Lung tumor = settings: Table 3, Lung; response = ≤50% survival of tumor colony forming units
Excerpt: as §7, §8, §9

Ovary tumor = settings: Table 3, Ovary; response = ≤50% survival of tumor colony forming units
Excerpt: as §7, §8, §9

Kidney tumor = settings: Table 3, Kidney; response = ≤50% survival of tumor colony forming units
Excerpt: as §7, §8, §9

[11] = Table 1, ≤30% survival of tumor colony forming units, 10 μg/ml, continuous exposure
[12] = Table 1, ≤50% survival of tumor colony forming units, 10 μg/ml, continuous exposure
[13] = Table 3, all tumor types, response = ≤50% survival of tumor colony forming units

c1ccc(P(CCP(c2ccccc2)c2ccccc2)c2ccccc2)cc1 [Compound 33, bis(1,2-diphenylphosphino)-ethane]
alleged cytotoxic activity (cells): alleged cytotoxic activity
MTD [1]: 5 mg/kg
ILS (B16 melanoma; at MTD of 5 mg/kg, three separate experiments, listed as Compound No. 2 from Table BI, 5 mg/kg): 64% and 49% and 39%
MTD (ADJ-PC6 Plasmacytoma; one experiment): 6 mg/kg
tumor growth inhibition (ADJ-PC6 Plasmacytoma; one experiment, at MTD of 6 mg/kg): 94%
tumor growth inhibition (ADJ-PC6 Plasmacytoma; second experiment, at MTD of 4 mg/kg): 49%
MTD [2]: 4 mg/kg
MTD (maximally tolerated dose) ([3]; Table D): 6 mg/kg
ILS max (maximum increase in lifespan) ([3]; Table D): 70% and 96% and 68%
ILS (Lewis Lung tumor): 69%
MTD [4]: 12 mg/kg
tumor inhibition ([5]; iv, at MTD of 32 mg/kg): 95%
MTD ([6]; ip): 30 mg/kg
MTD ([6]; iv): 32 mg/kg
ILS [7]: 50%
MTD [8]: 16 mg/kg
ILS (maximum increase in lifespan) (P388 leukemia; Table BI, ip P388 leukemia mice, ip days 1-5, slash-separated figures are separate experiments, compound 33: 41 experiments): 98 ± 26%
IC50 ([9]; Mus musculus, B16, Table AI, Formula (IA)): 60 µM
MTD (in vivo): 16 mg/kg

[Cl][Au][PH](CC[PH]([Au][Cl])(c1ccccc1)c1ccccc1)(c1ccccc1)c1ccccc1 [Compound 2, μ-[1,2-bis(diphenylphosphino)ethane]bis-[chlorogold (I)]]
# responses/# evaluable (Unknown primary tumor): 2/3
# responses ≤30%/# evaluable [10, 11]: 6/19
responses ≤30% (% of evaluable) [10, 11]: 32%
# responses ≤50%/# evaluable [10, 12]: 11/19
responses ≤50% (% of evaluable) [10, 12]: 58%
# responses/# evaluable, TOTALS [10, 13]: 11/19
responses, TOTALS (% of evaluable) [10, 13]: 58%
in vitro cytotoxic activity against primary human tumor cells ([10]; in words): substantial in vitro cytotoxic activity
MTD (maximally tolerated dose) (B16 melanoma; Table E, B6D2F1 mice, ip qD × 10): 5 um/kg
% Inhibition of tumor growth (ADJ-PC6 Plasmacytoma; Table G, ip days 1-10, tumors measured day 18, slash = separate experiments): 96% and 93%
antitumor activity in ADJ-PC6 Plasmacytoma (ADJ-PC6 Plasmacytoma; in words, based on Table G): excellent antitumor activity
MTD (maximally tolerated dose) ([3]; Table C): 4 mg/kg
ILS max (maximum increase in lifespan) ([3]; Table C, compound 2: seven experiments): 76 ± 30%
activity in the ip M5076 reticulum cell sarcoma assay ([3]; in words, based on Tables C and D): good activity
# responses/# evaluable (Breast tumor): 1/3
MTD (maximally tolerated dose) ([5]; Table F, C3H mice, intermittent ip regimen): 9 um/kg
# responses/# evaluable (Melanoma): 0/1
# responses/# evaluable (Corpus uterus tumor): 1/1
MTD (maximally tolerated dose) (P388 leukemia; Table B, B6D2F1 female mice, ip qD × 5): 6 mg/kg
# responses/# evaluable (Lung tumor): 1/3
# responses/# evaluable (Ovary tumor): 4/6
IC50 ([9]; Table A, Formula (I)): 8 µM
# responses/# evaluable (Kidney tumor): 2/2
